Where “and” joins values, the source holds several entries; their conditions need not be identical. Identical values can stand only once. Calls of active or inactive are those of the source. No rule for the calls is given here.

One assay can be described thus: reduced viability of parasite-Hsp90 expressing yeast – ATP luminescence, 48 h, cherry-picked samples, anti-malarial Hsp90 inhibitor project, dose response (AID 540268).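 As to activity change, negative = inhibition: 0% = neutral control wells and -100% = positive control wells.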 As to conditions: yeast expressing the parasite Hsp90, ATP luminescence.
Broadly, the AC50 is the concentration at which the activity in the assay is half-maximal. `Oc1ccc(N=Nc2nc(-c3ccccc3)c(-c3ccccc3)[nH]2)cc1`: the AC50 is 6.13 µM. Still for that read-out and setting: the result for `CCCCCCCCCCCCn1ccc(=N)cc1` reads 7.7 µM; that for `Oc1c(C(c2ccc(Cl)cc2)N2CCCC2)cc(Cl)c2cccnc12` (stereo unspecified), 1.58 µM. For `O=C(Nc1ccccc1Cl)/C(Cl)=C(\Cl)S(=O)c1ccccc1` (stereo unspecified), the AC50 is 0.718 µM. The same measure, in the same setting: the result for `O=C(OCC(=O)c1c[nH]c2ccccc12)c1ccc([N+](=O)[O-])s1` reads 4.09 µM. On the same count and under the same terms, in the case of `CCCCCCCCCCCCCCCC[n+]1ccc(/C=N/O)cc1` it was less than 0.195 µM. On to `CC1(C)N=C(SCC(=O)Nc2ccc(Cl)cc2)C(c2ccc(Cl)cc2)=N1`, for which the AC50 is 8.73 µM. On to `COc1ccc(N(C(=O)c2ccncc2)S(=O)(=O)c2ccc(Cl)cc2)cc1`, for which the AC50 was 0.562 µM. Still for that read-out and setting: in the case of `O=[N+]([O-])/C=C/c1c(Cl)cccc1Cl` it was 0.457 µM; in that of `CC(C)CC(=O)/C(=C\c1ccc(Cl)cc1Cl)n1cncn1`, 1.75 µM. On the same count and under the same terms, the result for `Oc1ccc(Cl)cc1Cc1cc(Cl)ccc1O` reads 5.41 µM.

On to `CC(=O)OC1(C)CC(C)C(=O)C(C(O)CC2CC(=O)NC(=O)C2)C1` (stereo unspecified), for which the concentration at half-maximal activity (AC50) is less than 0.195 µM. Still for that read-out and setting: the result for `CC1=C/C(=N\OS(=O)(=O)c2ccccc2)C(C(C)C)=CC1=O` reads 0.827 µM. Take `O=C(N/N=C\c1c(O)ccc2ccccc12)c1cncc(Br)c1`: the AC50 is 4.28 µM. Take `OC(Cn1cncn1)(c1ccc(F)cc1)c1ccc(Cl)cc1` (stereo unspecified): the AC50 was less than 0.195 µM. Consider `COc1ccc(C)cc1N=Nc1ccc(O)c2ncccc12`, for which the AC50 is 1.18 µM. Still for that read-out and setting: the result for `OCCOCCn1c(C2CCCN2c2nc(-c3ccc(F)cc3)cs2)nc2cc(C(F)(F)F)ccc21` (stereo unspecified) reads 7.92 µM; that for `O=C(NN1C(=O)/C(=C/c2ccc(O)c([N+](=O)[O-])c2)SC1=S)c1ccccc1Cl`, 4.13 µM. On the same count and under the same terms, the result for `O=C1CC(N2CCC(c3nc4ccccc4o3)CC2)C(=O)N1c1ccc(Cl)c(C(F)(F)F)c1` (stereo unspecified) reads 4.08 µM. Still for that read-out and setting: the result for `O=C(NCCCCc1ccccc1)c1ccc(Br)cc1` reads 4.42 µM; that for `Cc1cc(C)c2c(N=NN(C)C)[nH]nc2n1`, 3.92 µM. For the compound `CSc1ccccc1OCc1cc(C(=O)N2CCN(C)C(c3ccccc3)C2)no1` (stereo unspecified), the AC50 was 2.25 µM. Same read-out and setting: the result for `O=Nc1c(O)c2ccccc2c2ccccc12` reads 1.57 µM; that for `Cc1csc(CNc2ncnc3ccc(-c4cccc(Cl)c4)cc23)c1`, 8.17 µM; that for `Clc1ccc(COC(Cn2ccnc2)c2ccc(Cl)cc2Cl)c(Cl)c1` (stereo unspecified), less than 0.195 µM. Same read-out and setting: in the case of `CCOC(=O)c1c(-n2c(C)cc(C=C3C(=O)NC(=S)NC3=O)c2C)sc2c1CCCC2` it was 2.99 µM.

For the compound `COc1ccccc1OCc1cc(C(=O)N2CCN(C)C(c3ccccc3)C2)no1` (stereo unspecified), the AC50 is 3.05 µM. Still for that read-out and setting: in the case of `O=[N+]([O-])c1cc(Br)c(Nc2ccccc2)c([N+](=O)[O-])c1` it was 8.53 µM; in that of `Cc1ccc(-c2cc(C(=O)N3N=C(C(F)F)CC3(O)C(F)F)c3ccccc3n2)cc1C` (stereo unspecified), 2.93 µM; in that of `Cc1ccc(N2C(=O)C3C4C=CC(CNC(=S)Nc5cccc(Cl)c5)(O4)C3C2=O)cc1` (stereo unspecified), 8.74 µM. Same read-out and setting: the result for `O=S(=O)(/C=C/c1ccccc1)NC1CCCCCCC1` reads 1.18 µM.

Take `CCN(CC)C1CC(=O)N(c2ccc(Br)cc2)C1=O` (stereo unspecified): the AC50 was 2.97 µM. On to `Cc1cc(C)c2c(N=NN3CCCCC3)[nH]nc2n1`, for which the half-maximal activity concentration (AC50) is 4.73 µM. On the same count and under the same terms, the result for `O=C(O)c1ccccc1NC(c1ccccc1)c1ccc2cccnc2c1O` (stereo unspecified) reads 4.87 µM; that for `O=C(O)c1cccc(NN=C2c3ccccc3-c3ccccc32)c1`, 5.71 µM; that for `CC(C)c1c(O)ccc2c1CC[C@H]1C(C)(C)CCC[C@]21C`, 2.86 µM. Same read-out and setting: the result for `CC(=O)NC(c1ccc2ccccc2c1)c1ccc2cccnc2c1O` (stereo unspecified) reads 1.75 µM; that for `Cc1nn2c(NCc3ccccn3)cc(C(C)(C)C)nc2c1-c1ccccc1`, 3.02 µM. The same measure, in the same setting: in the case of `N/C(Cc1ccc(Cl)cc1Cl)=N\OC(=O)c1cccs1` it was 6.39 µM; in that of `Cn1c(SCC(=O)N/N=C/c2ccc([N+](=O)[O-])s2)nnc1-c1ccc(Cl)cc1`, 2.3 µM. For the compound `CC(C)N1CCN(c2ccc(OCC3COC(Cn4cncn4)(c4ccc(Cl)cc4Cl)O3)cc2)CC1` (stereo unspecified), the AC50 was 1.12 µM. `Cc1cc(NC(c2ccc(Cl)cc2)c2ccc3cccnc3c2O)no1` (stereo unspecified): the concentration at half-maximal activity (AC50) is 4.2 µM. Still for that read-out and setting: the result for `COC(=O)C1=C(C(=O)OC)C2OC1c1cc3ccccc3cc12` reads 1.92 µM; that for `Oc1c(CN2CCN(c3ccccc3)CC2)cc(Br)c2cccnc12`, 7.92 µM; that for `O=C(N/N=C/c1ccccn1)c1cc(-c2ccc(Cl)cc2)nc2ccccc12`, 8.57 µM. Still for that read-out and setting: the result for `C=CCn1c(C)cc(C(=O)CSc2nnc(NCc3ccccc3)s2)c1C` reads 4.2 µM; that for `CCCC1COC(Cn2cncn2)(c2ccc(Cl)cc2Cl)O1` (stereo unspecified), less than 0.195 µM. For `Cc1cccc(C)c1N=Nc1c(C)cc(O)cc1C`, the half-maximal activity concentration (AC50) was 8.29 µM. For `O=C1CC(N2CCCCCC2)C(=O)N1c1ccc2c(c1)OCO2` (stereo unspecified), the AC50 was 4.12 µM. As to `Cc1nnc(C)n1/N=C/c1cc(Br)cc(Br)c1O`, the AC50 is 4.35 µM. Same read-out and setting: the result for `COc1cccc(/C=N/Nc2ccc([N+](=O)[O-])cn2)c1O` reads 4.36 µM; that for `CSc1nc2cc(Oc3cccc(Cl)c3Cl)c(Cl)cc2[nH]1`, 6.41 µM. `On1ccccc1=S`: the AC50 is less than 0.195 µM. Still for that read-out and setting: in the case of `Oc1ccc(N=Nc2c(O)ccc3ccccc23)cc1` it was 7.02 µM; in that of `Cc1ccc(NC(=O)c2cc(N3C(=O)C=CC3=O)ccc2Cl)cc1C`, 0.92 µM; in that of `COc1cc(/C=C/[N+](=O)[O-])ccc1OC(=O)c1cccnc1`, 1.65 µM. Still for that read-out and setting: the result for `CCCCCC(=O)N(O)C1CC(=O)N(c2ccccc2)C1=O` (stereo unspecified) reads 1.13 µM; that for `O=C(/C=C/c1cc(Br)ccc1O)c1ccco1`, 5.35 µM; that for `CC(C)CCOc1cccc(OCC(=O)Nc2ccncc2)c1`, 4.84 µM. For `Cc1[nH]c(N=Nc2ccccc2)nc1N=Nc1ccccc1`, the AC50 is 4.41 µM. On the same count and under the same terms, in the case of `CC(=NNc1nc2ccccc2s1)c1ncccn1` it was 2.36 µM. On the same count and under the same terms, the result for `CN1CCN(C(c2ccccn2)c2cc(Cl)c3cccnc3c2O)CC1` (stereo unspecified) reads 7.88 µM. Consider `O=C(NCC1CCCO1)c1cc([N+](=O)[O-])ccc1N1CCC(Cc2ccccc2)CC1` (stereo unspecified), for which the AC50 is 4.06 µM. Still for that read-out and setting: the result for `CCC(=O)OCOc1ccc(/C=C2/CCC(CN(C)C)C2=O)cc1` (stereo unspecified) reads 2.89 µM; that for `CCCCCCCCCCCCCCCC[n+]1cccc(C(=O)N(CC)CC)c1`, 2.89 µM and 8.12 µM; that for `O=C1OC(c2ccccc2)(c2cc(Br)c(O)c(Br)c2)c2ccccc21` (stereo unspecified), 2.97 µM. On the same count and under the same terms, the result for `CCC(C)Nc1ccc(NC(C)CC)cc1` (stereo unspecified) reads 3.26 µM; that for `CN(C)CC1CC/C(=C\c2ccc(O)cc2)C1=O` (stereo unspecified), 5.54 µM. The same measure, in the same setting: in the case of `CC(C)Cn1c(=O)c(C(=O)Nc2ccncc2)c(O)c2ccccc21` it was 8.25 µM; in that of `Cn1c(/C=C/c2ccc([N+](=O)[O-])o2)nc2ccccc2c1=O`, 6 µM. For the compound `O=C1c2cc(Cl)ccc2-c2c(O)cc(Cl)cc21`, the half-maximal activity concentration (AC50) was 1.4 µM. The same measure, in the same setting: the result for `O=[N+]([O-])c1cccc(C=NNc2ccc3ccccc3n2)c1O` reads 3.63 µM; that for `O=C1CC(N2CCN(c3nc4ccccc4s3)CC2)C(=O)N1Cc1cccs1` (stereo unspecified), 4.66 µM; that for `Cc1cc(Cl)ccc1C(=O)C1CCCN(C(=O)c2cncs2)C1` (stereo unspecified), 4.62 µM. Still for that read-out and setting: the result for `COc1ccc2c(c1)[C@H]1[C@H](CO2)[C@H](c2ccccc2)[C@]2(C)C(=O)Nc3ccc(Br)cc3C(=O)N12` reads 1.74 µM; that for `O=C(c1ccc(-c2ccccc2)c(F)c1)C1CCCN(C(=O)c2cncs2)C1` (stereo unspecified), 8.42 µM; that for `CC(C)=CCc1c2c(c3occ(-c4ccc(O)c(O)c4)c(=O)c3c1O)C=CC(C)(C)O2`, 8.75 µM. Still for that read-out and setting: the result for `Cc1ccc(Nc2nc(N)c([N+](=O)[O-])c(N3CCCC(C)C3)n2)cc1C` (stereo unspecified) reads 3.73 µM; that for `Oc1c(C(Nc2nc3ccccc3s2)c2ccco2)ccc2cccnc12` (stereo unspecified), 24.8 µM; that for `Cc1cc(/C=C\c2ccc3cc(N(C)C)ccc3[n+]2C)c(C)n1-c1ccccc1`, 4.39 µM. Consider `Cc1onc(-c2ccccc2)c1C(=O)NC(=S)NNC(=O)c1ccccc1O`, for which the concentration at half-maximal activity (AC50) was 2.24 µM. On the same count and under the same terms, the result for `O=[N+]([O-])c1c(Nc2ccccn2)cc(Cl)c2nonc12` reads 0.803 µM; that for `CC(C)C(=O)NC(c1ccc(Cl)cc1Cl)c1ccc2cccnc2c1O` (stereo unspecified), 15.3 µM. As to `COc1cccc(/C=N/Nc2ncnc3scc(-c4ccccc4)c23)c1O`, the concentration at half-maximal activity (AC50) is 15.3 µM. The same measure, in the same setting: in the case of `COc1cc(/C=C/[N+](=O)[O-])ccc1OC(=O)c1cc2ccccc2oc1=O` it was 1.3 µM; in that of `O=C(O)c1cccc(N/N=C/c2cc(Br)cc(Br)c2O)c1`, 1.15 µM. For `O=c1[nH]c(-c2ccccn2)nc(C(F)(F)F)c1Br`, the half-maximal activity concentration (AC50) is 4 µM. `Cc1ccc(C(C)C)c(OCc2ccc(C(=O)N/N=C/c3cccc(O)c3O)cc2)c1`: the AC50 is 1.62 µM.

In the case of `CCCCCCCCCCOC(=O)Cn1c(COc2ccc(Cl)cc2)[n+](C)c2ccccc21`, the AC50 is 4.25 µM.

Regarding `COc1cc(N=Nc2ccc3ccccc3c2)ccc1O`, the AC50 is 8.61 µM. On the same count and under the same terms, in the case of `C=CCn1c(O)c(C2=c3ccccc3=NC2=O)c2ccccc21` it was 0.844 µM; in that of `Cc1cc(N=Nc2ccccc2C(=O)O)c(C)c(C)c1O`, 4.79 µM. Same read-out and setting: in the case of `O=C(CSCC(=O)N1CCCCC1)Nc1nc(-c2ccc(Cl)s2)cs1` it was 4.76 µM; in that of `CCCCCCCCCCCCCCCCn1cc[n+](CC(C)=O)c1`, 4.39 µM; in that of `Clc1ccc(N=c2ssnc2Cl)cc1`, 2.69 µM. On the same count and under the same terms, in the case of `O=S1(=O)C=C(Sc2nnc(-c3ccccc3)o2)c2ccccc21` it was 3.57 µM; in that of `COc1ccc2c(n1)Sc1nc3ccccc3nc1N2`, 12.1 µM.

`CC(=NNC(=S)N1CCN(c2ccccn2)CC1)c1nccs1`: the half-maximal activity concentration (AC50) was 2.58 µM.

Still in this assay, the particulars now being: yeast expressing the parasite Hsp90, ATP luminescence, at 26 µM (top of the series).
With `Cc1ccc(N2C(=O)C3C4C=CC(CNC(=S)Nc5ccc(F)cc5)(O4)C3C2=O)cc1` (stereo unspecified), the activity change, negative = inhibition was 9.97% (inactive). On the same count and under the same terms, the result for `O=C1C=CC(=O)N1Cc1ccccc1` reads 21.3% (inactive); that for `Cc1cc(Br)c2c(c1)/C(=C/C(=O)c1cccs1)C(=O)N2`, -12.3% (inactive).

Source of the values: PubChem BioAssay AID540268 (Broad Institute, 2011).
